Molecular target: T1, glucocerebrosidase (Gcase) (Homo sapiens, UniProt P04062)
T1 construct: micellar solution containing 10 nM GCase and 100 nM saposin C
T1 sequence (P04062 40-536): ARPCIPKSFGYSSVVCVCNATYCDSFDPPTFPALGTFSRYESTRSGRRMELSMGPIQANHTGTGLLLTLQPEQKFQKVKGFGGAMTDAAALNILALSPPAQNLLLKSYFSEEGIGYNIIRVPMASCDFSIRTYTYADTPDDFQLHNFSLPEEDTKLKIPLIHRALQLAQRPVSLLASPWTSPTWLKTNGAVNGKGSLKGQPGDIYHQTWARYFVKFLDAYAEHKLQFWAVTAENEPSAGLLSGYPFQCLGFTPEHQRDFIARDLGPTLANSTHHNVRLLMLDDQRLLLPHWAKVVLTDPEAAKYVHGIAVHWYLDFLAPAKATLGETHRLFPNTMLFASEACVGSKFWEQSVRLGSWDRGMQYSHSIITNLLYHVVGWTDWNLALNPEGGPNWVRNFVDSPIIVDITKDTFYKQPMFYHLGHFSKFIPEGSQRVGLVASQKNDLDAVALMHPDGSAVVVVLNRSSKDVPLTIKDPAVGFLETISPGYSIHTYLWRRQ
Experiment: Glucocerebrosidase (Gcase) activation assay with 4-methylumbelliferyl-beta-D-glucopyranoside substrate, saposin C and phosphatidylserine/triton micelles, fluorescence readout
Format: biochemical
Conditions: for Percent Gcase Activation, 0.1 μM Test Compound: test compound at 0.1 μM; for Percent Gcase Activation, 1 μM Test Compound: test compound at 1.0 μM
How it was run: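 Fluorescence (ex 365 nm, em 440 nm) read after glycine pH 12.5 stop of a 15 min room-temperature reaction. GCase 10 nM plus saposin C 100 nM in PS/triton micelles, pH 4.7, preincubated 30 min with compound; substrate solution held 2 mM 4-MU-beta-glucoside. Screened at 1.0 and 0.1 μM; 8-point, 3-fold curves from 5 μM top.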

| Compound | Percent Gcase Activation, 0.1 μM Test Compound | Percent Gcase Activation, 1 μM Test Compound |
| --- | --- | --- |
| Cc1cc(-c2cncc(Cl)c2)nc2c(C(=O)N[C@@H](C)C(F)(F)F)cnn12 [III-202] | *** (greater than 20% Gcase activation) | +++ (Gcase activation greater than 60%) |
| Cc1cc(-c2ncccc2F)nc2c(C(=O)NC(C3CC3)C(F)(F)F)cnn12 (centres unmarked) [III-203] | *** (greater than 20% Gcase activation) | +++ (Gcase activation greater than 60%) |
| Cc1cc(-c2ccc(F)cn2)nc2c(C(=O)NC(C3CC3)C(F)(F)F)cnn12 (centres unmarked) [III-204] | *** (greater than 20% Gcase activation) | +++ (Gcase activation greater than 60%) |
| Cc1cc(-c2cc(F)ccn2)nc2c(C(=O)NC(C3CC3)C(F)(F)F)cnn12 (centres unmarked) [III-205] | *** (greater than 20% Gcase activation) | +++ (Gcase activation greater than 60%) |
| Cc1cc(-c2ncccc2Cl)nc2c(C(=O)NC(C3CC3)C(F)(F)F)cnn12 (centres unmarked) [III-206] | *** (greater than 20% Gcase activation) | +++ (Gcase activation greater than 60%) |
| Cc1cc(-c2cc(Cl)ccn2)nc2c(C(=O)NC(C3CC3)C(F)(F)F)cnn12 (centres unmarked) [III-207] | *** (greater than 20% Gcase activation) | +++ (Gcase activation greater than 60%) |
| Cc1cc(-c2ccc(Cl)cn2)nc2c(C(=O)NC(C3CC3)C(F)(F)F)cnn12 (centres unmarked) [III-208] | ** (Gcase activation in the range of 10% up to 20%) | + (less than 30% Gcase activation) |
| Cc1cc(-c2nccs2)nc2c(C(=O)NC(C3CC3)C(F)(F)F)cnn12 (centres unmarked) [III-209] | *** (greater than 20% Gcase activation) | +++ (Gcase activation greater than 60%) |
| Cc1cc(-c2ccc3c(c2)OCO3)nc2c(C(=O)N[C@@H](C)C3CC3)cnn12 [III-210] | *** (greater than 20% Gcase activation) | +++ (Gcase activation greater than 60%) |
| Cc1cc(-c2ccccc2C#N)nc2c(C(=O)NC(C3CC3)C(F)(F)F)cnn12 (centres unmarked) [III-211] | *** (greater than 20% Gcase activation) | +++ (Gcase activation greater than 60%) |
| Cc1cc(-c2ccccc2C#N)nc2c(C(=O)N[C@H](C)C(F)(F)F)cnn12 [III-212] | * (less than 10% Gcase activation) | ++ (Gcase activation in the range of 30% up to 60%) |
| Cc1cc(-c2ccccc2C#N)nc2c(C(=O)N[C@@H](C)C(F)(F)F)cnn12 [III-213] | *** (greater than 20% Gcase activation) | +++ (Gcase activation greater than 60%) |
| Cc1cc(-c2cc(C)n3ncc(C(=O)NC(C4CC4)C(F)(F)F)c3n2)sn1 (centres unmarked) [III-214] | *** (greater than 20% Gcase activation) | +++ (Gcase activation greater than 60%) |
| Cc1cc(-c2cc(C)n3ncc(C(=O)N[C@H](C4CC4)C(F)(F)F)c3n2)sn1 [III-215] | *** (greater than 20% Gcase activation) | +++ (Gcase activation greater than 60%) |
| Cc1cc(-c2cc(C)n3ncc(C(=O)N[C@@H](C4CC4)C(F)(F)F)c3n2)sn1 [III-216] | *** (greater than 20% Gcase activation) | +++ (Gcase activation greater than 60%) |
| Cc1cc(-c2cccc3ncoc23)nc2c(C(=O)N[C@@H](C)C3CC3)cnn12 [III-217] | ** (Gcase activation in the range of 10% up to 20%) | +++ (Gcase activation greater than 60%) |
| Cc1cc(-c2cccc3ncoc23)nc2c(C(=O)N[C@H](C)C3CC3)cnn12 [III-218] | * (less than 10% Gcase activation) | ++ (Gcase activation in the range of 30% up to 60%) |

| Compound | Percent Gcase Activation, 0.1 μM Test Compound | Percent Gcase Activation, 1 μM Test Compound |
| --- | --- | --- |
| Cc1cc(-c2cccc3ncoc23)nc2c(C(=O)NC(C)(C)C(F)(F)F)cnn12 [III-219] | ** (Gcase activation in the range of 10% up to 20%) | ++ (Gcase activation in the range of 30% up to 60%) |
| Cc1cc(-c2ccc3scnc3c2)nc2c(C(=O)NC(C)C(F)(F)F)cnn12 (centres unmarked) [III-220] | *** (greater than 20% Gcase activation) | +++ (Gcase activation greater than 60%) |
| Cc1cc(-c2cccc3ncsc23)nc2c(C(=O)NC(C)C(F)(F)F)cnn12 (centres unmarked) [III-221] | *** (greater than 20% Gcase activation) | +++ (Gcase activation greater than 60%) |
| Cc1cc(-c2cccc3ncsc23)nc2c(C(=O)N[C@@H](C)C3CC3)cnn12 [III-222] | *** (greater than 20% Gcase activation) | +++ (Gcase activation greater than 60%) |
| Cc1cc(-c2cccc3ncoc23)nc2c(C(=O)NC(C)(C)C3CC3)cnn12 [III-223] | *** (greater than 20% Gcase activation) | +++ (Gcase activation greater than 60%) |
| CCc1cc(N2CCN(C(C)C)C2=O)nc2c(C(=O)NC(C3CC3)C(F)(F)F)cnn12 (centres unmarked) [III-224] | ** (Gcase activation in the range of 10% up to 20%) | +++ (Gcase activation greater than 60%) |
| Cc1cc(N2CCN(C(C)C)C2=O)nc2c(C(=O)NC(C3CC3)C(F)(F)F)cnn12 (centres unmarked) [III-225] | ** (Gcase activation in the range of 10% up to 20%) | +++ (Gcase activation greater than 60%) |
| CCc1cc(N2CCN(C(C)C)C2=O)nc2c(C(=O)NC(C)C(F)(F)F)cnn12 (centres unmarked) [III-226] | * (less than 10% Gcase activation) | ++ (Gcase activation in the range of 30% up to 60%) |
| Cc1cc(N2CCN(C(C)C)C2=O)nc2c(C(=O)NC(C)C(F)(F)F)cnn12 (centres unmarked) [III-227] | * (less than 10% Gcase activation) | + (less than 30% Gcase activation) |
| Cc1cc(N2CCNC2=O)nc2c(C(=O)NC(C3CC3)C(F)(F)F)cnn12 (centres unmarked) [III-228] | * (less than 10% Gcase activation) | +++ (Gcase activation greater than 60%) |
| CCc1cc(N2CCN(C(C)C)C2=O)nc2c(C(=O)NC(C)(C)C)cnn12 [III-229] | * (less than 10% Gcase activation) | ++ (Gcase activation in the range of 30% up to 60%) |
| Cc1cc(N2CCN(C(C)C)C2=O)nc2c(C(=O)NC(C)(C)C3CC3)cnn12 [III-230] | * (less than 10% Gcase activation) | ++ (Gcase activation in the range of 30% up to 60%) |
| Cc1cc(N2CCN(C(C)C)C2=O)nc2c(C(=O)NC(C)(C)C(F)(F)F)cnn12 [III-231] | * (less than 10% Gcase activation) | ++ (Gcase activation in the range of 30% up to 60%) |
| Cc1cc(N2CCN(C(C)C)C2=O)nc2c(C(=O)NC(C)(C)C)cnn12 [III-232] | * (less than 10% Gcase activation) | + (less than 30% Gcase activation) |
| Cc1cc(N2CCN(CC(F)(F)F)C2=O)nc2c(C(=O)NC(C3CC3)C(F)(F)F)cnn12 (centres unmarked) [III-233] | ** (Gcase activation in the range of 10% up to 20%) | +++ (Gcase activation greater than 60%) |
| Cc1cc(-c2cccc(Cl)n2)nc2c(C(=O)NC(C)C(F)(F)F)cnn12 (centres unmarked) [III-234] | *** (greater than 20% Gcase activation) | +++ (Gcase activation greater than 60%) |
| Cc1cc(-c2cccc(Cl)n2)nc2c(C(=O)N[C@H](C)C(F)(F)F)cnn12 [III-235] | ** (Gcase activation in the range of 10% up to 20%) | +++ (Gcase activation greater than 60%) |

— patent US10934298B2, “Substituted pyrazolo[1,5-a]pyrimidines for the treatment of medical disorders” (BIAL—BioTech Investments, Inc., priority 2016, dated 2021)
